The text below walks through data of patent US20140072613A1, “Compositions and Methods for Treating Cutaneous Scarring” (priority 2012, published 2014).

Where no end group is shown, it is not given here. Bounds are passed on as bounds.

In general, IC50 refers to the concentration that inhibits the measured activity by half. A word on the inhibition: it is how much of the control response was suppressed.

The subject of experiment [1] is 266 human kinases. Description: biochemical. The format is biochemical. Particulars: at 100 μM. From the text: (§1) Specifically, in these assays, a positively charged substrate is phosphorylated with a radiolabeled phosphate group from an ATP if the kinase is not inhibited by an inhibitor peptide. The positively charged substrate then is attracted to a negatively charged filter membrane, quantified with a scintillation counter, and compared to a 100% activity control.

In a further experiment the target is CaMK1δ (h) (Homo sapiens, UniProt Q8IU85). Put plainly: biochemical.
Excerpt: as §1

In another experiment the target is CaMKI (h) (Homo sapiens, UniProt Q14012). Put plainly: biochemical.
CaMKI (h), sequence (Q14012 whole entry): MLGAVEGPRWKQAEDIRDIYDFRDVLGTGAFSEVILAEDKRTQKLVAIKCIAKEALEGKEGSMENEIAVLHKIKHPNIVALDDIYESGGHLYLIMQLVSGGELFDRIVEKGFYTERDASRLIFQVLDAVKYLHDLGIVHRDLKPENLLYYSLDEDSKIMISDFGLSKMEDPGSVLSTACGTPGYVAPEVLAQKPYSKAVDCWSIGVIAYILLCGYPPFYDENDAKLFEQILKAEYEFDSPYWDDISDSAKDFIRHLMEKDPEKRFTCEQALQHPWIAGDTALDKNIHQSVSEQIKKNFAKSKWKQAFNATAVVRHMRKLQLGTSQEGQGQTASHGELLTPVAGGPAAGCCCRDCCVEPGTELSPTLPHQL
Excerpt: as §1

Another experiment addresses EphA2 (h) (Homo sapiens, UniProt P29317). Description: biochemical.
Excerpt: as §1

In another experiment the target is FGFR2 (h) (Homo sapiens, UniProt P21802). Put plainly: biochemical.
Excerpt: as §1

The next experiment addresses Fes(h) (Homo sapiens, UniProt P07332). Put plainly: biochemical.
Excerpt: as §1

Another experiment deals with Fgr (h) (Homo sapiens, UniProt P09769). Description: biochemical.
Excerpt: as §1

In the next experiment the target is MSK1 (h) (Homo sapiens, UniProt O75582). Description: biochemical.
Excerpt: as §1

Another experiment deals with Pim-1 (h) (Homo sapiens, UniProt P11309). Description: biochemical.
Excerpt: as §1

For a further experiment, the target named is Yes (h) (Homo sapiens, UniProt P07947). Put plainly: biochemical.
Yes (h), sequence (P07947 whole entry): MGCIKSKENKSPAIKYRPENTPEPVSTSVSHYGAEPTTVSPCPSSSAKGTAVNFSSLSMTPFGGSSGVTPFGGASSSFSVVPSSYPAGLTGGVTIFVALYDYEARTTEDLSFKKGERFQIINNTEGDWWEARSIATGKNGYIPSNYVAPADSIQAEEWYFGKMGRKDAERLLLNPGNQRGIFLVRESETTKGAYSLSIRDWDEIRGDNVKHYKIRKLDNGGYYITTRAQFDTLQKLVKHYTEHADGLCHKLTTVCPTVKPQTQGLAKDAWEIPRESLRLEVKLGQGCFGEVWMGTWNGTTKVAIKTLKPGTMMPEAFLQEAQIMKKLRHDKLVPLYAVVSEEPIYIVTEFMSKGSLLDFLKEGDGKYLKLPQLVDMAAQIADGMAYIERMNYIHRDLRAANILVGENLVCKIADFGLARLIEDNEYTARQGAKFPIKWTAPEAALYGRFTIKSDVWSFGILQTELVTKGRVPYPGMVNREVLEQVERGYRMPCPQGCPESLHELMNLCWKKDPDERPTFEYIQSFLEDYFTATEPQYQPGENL
Excerpt: as §1

Another experiment concerns the target MAPKAP-K2 (h) (Homo sapiens, UniProt P49137). Description: Millipore radiometric kinase assay (IC50 Profiler Express / kinase profiling). The format is biochemical.
Excerpt: as §1

A further experiment concerns the target MAPKAP-K3 (h) (Homo sapiens, UniProt Q16644). The description is as above. The format is biochemical.
Excerpt: as §1

The target of the next experiment is TrkB (h) (Homo sapiens, UniProt Q16620). Described as above. The experiment is classed as biochemical.
TrkB (h), sequence (Q16620 32-822): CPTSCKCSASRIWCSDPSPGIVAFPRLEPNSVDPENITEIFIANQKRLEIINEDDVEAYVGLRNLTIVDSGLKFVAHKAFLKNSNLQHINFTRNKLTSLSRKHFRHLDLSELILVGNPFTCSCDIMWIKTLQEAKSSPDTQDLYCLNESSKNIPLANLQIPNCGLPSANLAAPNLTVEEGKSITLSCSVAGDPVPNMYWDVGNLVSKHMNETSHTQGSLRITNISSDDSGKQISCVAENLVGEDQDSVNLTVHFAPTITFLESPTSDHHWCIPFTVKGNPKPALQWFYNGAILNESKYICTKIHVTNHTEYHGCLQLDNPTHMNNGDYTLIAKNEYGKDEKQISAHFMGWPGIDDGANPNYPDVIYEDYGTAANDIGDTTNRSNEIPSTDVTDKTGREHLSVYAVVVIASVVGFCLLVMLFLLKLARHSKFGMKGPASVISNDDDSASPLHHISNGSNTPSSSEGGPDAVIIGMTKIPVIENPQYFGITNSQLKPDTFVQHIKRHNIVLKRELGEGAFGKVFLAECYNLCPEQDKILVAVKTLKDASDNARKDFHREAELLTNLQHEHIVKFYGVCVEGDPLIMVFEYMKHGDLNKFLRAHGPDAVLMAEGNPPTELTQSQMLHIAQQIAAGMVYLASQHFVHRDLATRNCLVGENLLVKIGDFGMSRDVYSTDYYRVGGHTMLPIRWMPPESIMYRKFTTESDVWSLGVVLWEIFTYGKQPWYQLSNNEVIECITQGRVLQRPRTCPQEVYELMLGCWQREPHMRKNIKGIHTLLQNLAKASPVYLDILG
Excerpt: as §1

The next experiment addresses T1, DMPK (h) (Homo sapiens, UniProt Q09013).
T1 sequence (Q09013 1-629): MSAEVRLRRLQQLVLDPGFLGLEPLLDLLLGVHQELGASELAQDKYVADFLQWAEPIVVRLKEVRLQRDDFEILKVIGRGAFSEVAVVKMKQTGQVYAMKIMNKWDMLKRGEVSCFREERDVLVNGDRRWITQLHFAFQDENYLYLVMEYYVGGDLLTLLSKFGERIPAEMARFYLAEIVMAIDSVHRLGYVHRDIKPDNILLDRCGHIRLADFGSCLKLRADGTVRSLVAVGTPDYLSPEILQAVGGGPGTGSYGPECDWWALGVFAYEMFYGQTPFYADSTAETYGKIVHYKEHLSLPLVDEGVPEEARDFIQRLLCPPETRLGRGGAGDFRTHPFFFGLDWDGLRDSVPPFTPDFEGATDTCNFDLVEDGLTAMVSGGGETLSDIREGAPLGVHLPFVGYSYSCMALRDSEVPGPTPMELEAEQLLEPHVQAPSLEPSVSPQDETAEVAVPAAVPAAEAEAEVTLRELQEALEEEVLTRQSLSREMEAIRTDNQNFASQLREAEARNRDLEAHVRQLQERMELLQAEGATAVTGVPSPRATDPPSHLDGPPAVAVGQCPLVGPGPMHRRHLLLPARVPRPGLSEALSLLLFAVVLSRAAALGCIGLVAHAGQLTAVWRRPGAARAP
Description: Millipore radiometric kinase assay (IC50 Profiler Express). The format is biochemical.
Excerpt: as §1

In the next experiment the target is T2, DRAK1 (h) (Homo sapiens, UniProt Q9UEE5).
T2 sequence (Q9UEE5 1-414): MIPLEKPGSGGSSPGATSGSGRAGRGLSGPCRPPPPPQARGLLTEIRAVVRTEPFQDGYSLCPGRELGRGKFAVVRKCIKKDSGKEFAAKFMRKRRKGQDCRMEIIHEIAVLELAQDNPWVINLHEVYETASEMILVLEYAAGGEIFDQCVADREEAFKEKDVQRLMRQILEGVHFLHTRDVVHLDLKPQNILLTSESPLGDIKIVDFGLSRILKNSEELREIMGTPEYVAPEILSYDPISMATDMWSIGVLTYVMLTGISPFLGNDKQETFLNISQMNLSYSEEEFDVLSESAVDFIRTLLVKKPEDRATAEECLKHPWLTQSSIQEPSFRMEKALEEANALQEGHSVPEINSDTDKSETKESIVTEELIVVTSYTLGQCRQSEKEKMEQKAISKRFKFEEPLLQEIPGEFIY
The experiment is described as above. The experiment is classed as biochemical.
Excerpt: as §1

The next experiment concerns the target EGFR (L861Q) (h) (Homo sapiens, UniProt P00533, L861Q). The description is as above. The experiment is classed as biochemical.
Excerpt: as §1

For another experiment, the target named is LOK (h) (Homo sapiens, UniProt O94804). The experiment is described as above. The format is biochemical.
Excerpt: as §1

In experiment [2] the target is 266 human kinases (Homo sapiens, UniProt Q9H1R3). Description: biochemical. The format is biochemical. The following applies: MLCK(h); 100 μM.
Excerpt: as §1

Another experiment has as its target T3, Melanocortin 4 (Homo sapiens, UniProt P32245).
T3 construct: Cerep
Description: Cerep binding assay (radiolabelled ligand competition). The protocol:
(§2) Each binding assay was performed in 6-control wells with or without vehicle plus an 8-point dose-response of the relevant reference compound.

For another experiment, the target named is T4, Neurokinin 2 (Homo sapiens, UniProt P21452).
T4 construct: Cerep
T4 sequence (P21452 whole entry): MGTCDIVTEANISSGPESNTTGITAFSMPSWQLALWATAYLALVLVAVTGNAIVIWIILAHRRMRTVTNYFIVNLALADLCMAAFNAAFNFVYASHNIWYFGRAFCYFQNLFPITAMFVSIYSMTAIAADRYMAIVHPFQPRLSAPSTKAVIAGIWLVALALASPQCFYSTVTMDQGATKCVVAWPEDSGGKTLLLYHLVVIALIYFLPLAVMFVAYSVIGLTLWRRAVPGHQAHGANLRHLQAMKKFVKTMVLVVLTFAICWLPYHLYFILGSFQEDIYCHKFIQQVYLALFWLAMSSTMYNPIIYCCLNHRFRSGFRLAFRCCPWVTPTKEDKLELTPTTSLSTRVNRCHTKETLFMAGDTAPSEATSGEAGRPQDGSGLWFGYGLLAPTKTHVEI
The experiment is described as above. As for the experimental part: as §2

The target in the next experiment is T5, Serotonin 2A (Homo sapiens, UniProt P28223).
T5 construct: Cerep
T5 sequence (P28223 whole entry): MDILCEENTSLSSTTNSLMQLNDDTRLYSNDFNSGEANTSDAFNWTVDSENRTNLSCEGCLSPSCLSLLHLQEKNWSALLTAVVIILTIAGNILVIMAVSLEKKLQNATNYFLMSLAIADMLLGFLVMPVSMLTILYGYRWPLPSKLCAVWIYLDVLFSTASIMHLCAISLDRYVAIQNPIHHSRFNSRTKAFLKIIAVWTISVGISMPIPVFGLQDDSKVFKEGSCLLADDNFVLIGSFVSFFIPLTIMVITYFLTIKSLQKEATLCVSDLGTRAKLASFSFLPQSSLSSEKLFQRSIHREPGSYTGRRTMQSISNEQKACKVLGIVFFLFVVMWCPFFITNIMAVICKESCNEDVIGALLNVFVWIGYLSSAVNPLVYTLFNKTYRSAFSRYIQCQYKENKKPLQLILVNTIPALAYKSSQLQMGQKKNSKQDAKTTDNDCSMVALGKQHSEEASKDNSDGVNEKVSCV
Described as above. The protocol:
as §2

Experiment [3] deals with Ca^2+/calmodulin-dependent protein kinase II (CaMKII). The following applies: cited from earlier work.
The subject of the next experiment is PKA. Particulars: AIP 1 μM; cited from earlier work.
Another experiment has as its system PKC. Particulars: AIP 1 μM; cited from earlier work.
In a further experiment the target is CaMKIV (Homo sapiens, UniProt Q16566). Particulars: AIP 1 μM; cited from earlier work.
In experiment [4] the test system is hypertrophic scarring induced by mechanical loading. Put plainly: Mouse model of hypertrophic scarring induced by mechanical loading: scar area, gross and histological. The format is in vivo. The following applies: 50 μg/kg intraperitoneal daily day 0 through day 14.
Description: Dorsal skins were distracted laterally along both sides of the wound edge by a distraction rate of 1 mm/day from day 4 to day 7, and then 2 mm/day from day 8 to day 14. […] At day 14, skin wounds were photographed digitally, and scar areas were measured by Image J software. Tissue was harvested for RNA extraction, Florescence-Activated Cell Sorting (FACS) analysis, and histological examination.
Digital photographs were taken on the day of surgery and every two days thereafter. Gross scar appearance was assessed by tracing the wound margin and calculating the hypertrophic scar area.
Scar samples from each mouse were fixed in 10% formalin and embedded in paraffin. Sections were made and stained with hematoxylin and eosin (H&E) to assess scar tissue deposition. […] Scar areas were outlined, and areas were measured by using Image J software. Scale bar=100 μm.
The mark [5] stands for this setting: read-out: % Activity of off-target receptor.

MAPKAP-K2 (h), sequence (P49137 whole entry): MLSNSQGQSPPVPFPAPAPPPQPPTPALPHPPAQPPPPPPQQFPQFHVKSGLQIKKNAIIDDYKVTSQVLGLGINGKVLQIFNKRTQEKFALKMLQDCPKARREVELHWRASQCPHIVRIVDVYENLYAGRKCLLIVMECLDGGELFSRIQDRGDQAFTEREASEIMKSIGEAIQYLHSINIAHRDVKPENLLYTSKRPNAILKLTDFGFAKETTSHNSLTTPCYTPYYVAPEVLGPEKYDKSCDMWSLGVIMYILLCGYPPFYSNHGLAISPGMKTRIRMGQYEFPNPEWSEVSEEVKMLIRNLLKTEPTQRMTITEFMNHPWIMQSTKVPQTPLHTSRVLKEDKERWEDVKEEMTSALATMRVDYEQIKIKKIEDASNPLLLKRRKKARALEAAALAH
T3 sequence (P32245 whole entry): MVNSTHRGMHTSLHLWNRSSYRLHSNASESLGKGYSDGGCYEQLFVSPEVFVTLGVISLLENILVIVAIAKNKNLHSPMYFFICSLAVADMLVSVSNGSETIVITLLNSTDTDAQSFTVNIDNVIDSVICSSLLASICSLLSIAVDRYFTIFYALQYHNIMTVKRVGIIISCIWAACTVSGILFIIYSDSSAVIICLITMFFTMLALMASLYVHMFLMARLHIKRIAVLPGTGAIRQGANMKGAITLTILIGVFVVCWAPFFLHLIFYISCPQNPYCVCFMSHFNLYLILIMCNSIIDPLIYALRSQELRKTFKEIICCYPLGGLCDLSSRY
MAPKAP-K3 (h), sequence (Q16644 whole entry): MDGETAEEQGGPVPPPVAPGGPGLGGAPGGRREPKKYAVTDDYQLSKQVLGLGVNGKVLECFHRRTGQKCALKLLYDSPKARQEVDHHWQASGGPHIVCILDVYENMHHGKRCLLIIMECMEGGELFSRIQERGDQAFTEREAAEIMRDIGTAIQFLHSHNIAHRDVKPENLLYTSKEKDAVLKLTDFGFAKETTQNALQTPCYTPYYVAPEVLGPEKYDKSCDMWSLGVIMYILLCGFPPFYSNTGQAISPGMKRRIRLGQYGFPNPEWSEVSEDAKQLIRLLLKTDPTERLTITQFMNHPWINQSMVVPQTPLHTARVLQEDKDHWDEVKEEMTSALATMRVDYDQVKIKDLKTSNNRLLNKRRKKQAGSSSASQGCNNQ
EGFR (L861Q) (h), sequence (P00533 25-1210 L861Q): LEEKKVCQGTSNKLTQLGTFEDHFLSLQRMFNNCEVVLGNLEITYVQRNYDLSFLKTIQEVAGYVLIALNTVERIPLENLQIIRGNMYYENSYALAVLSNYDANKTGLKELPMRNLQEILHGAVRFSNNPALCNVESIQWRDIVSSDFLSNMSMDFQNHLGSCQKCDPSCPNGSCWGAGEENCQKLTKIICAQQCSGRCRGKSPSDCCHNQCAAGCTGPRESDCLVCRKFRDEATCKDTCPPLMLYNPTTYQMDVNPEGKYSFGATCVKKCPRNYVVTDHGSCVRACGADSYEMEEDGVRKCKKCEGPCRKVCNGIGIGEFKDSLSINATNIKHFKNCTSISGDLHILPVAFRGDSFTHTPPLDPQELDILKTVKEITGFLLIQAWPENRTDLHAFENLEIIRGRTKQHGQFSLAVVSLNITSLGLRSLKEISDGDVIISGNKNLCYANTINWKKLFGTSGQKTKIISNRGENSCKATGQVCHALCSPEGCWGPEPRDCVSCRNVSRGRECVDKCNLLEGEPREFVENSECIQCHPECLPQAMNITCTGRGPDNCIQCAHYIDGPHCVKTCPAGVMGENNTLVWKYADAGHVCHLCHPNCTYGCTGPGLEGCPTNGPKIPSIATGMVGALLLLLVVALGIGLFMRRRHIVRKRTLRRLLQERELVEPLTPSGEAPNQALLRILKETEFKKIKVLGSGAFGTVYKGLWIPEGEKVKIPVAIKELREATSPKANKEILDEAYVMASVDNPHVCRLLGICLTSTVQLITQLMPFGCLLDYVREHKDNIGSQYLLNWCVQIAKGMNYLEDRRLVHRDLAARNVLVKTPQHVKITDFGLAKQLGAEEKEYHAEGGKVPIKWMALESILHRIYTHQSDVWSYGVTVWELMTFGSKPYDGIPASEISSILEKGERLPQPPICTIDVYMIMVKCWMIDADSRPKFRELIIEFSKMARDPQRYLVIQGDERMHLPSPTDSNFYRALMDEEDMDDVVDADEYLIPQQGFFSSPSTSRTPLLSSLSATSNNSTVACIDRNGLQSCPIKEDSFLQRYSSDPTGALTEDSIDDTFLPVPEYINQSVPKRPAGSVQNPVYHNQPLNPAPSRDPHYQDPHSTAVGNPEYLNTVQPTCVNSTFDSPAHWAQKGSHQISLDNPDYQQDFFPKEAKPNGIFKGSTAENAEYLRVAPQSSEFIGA

As to KAFAKLAARLYRKALARQLGVAA [MMI-0400], the off-target kinase inhibition entry with 266 human kinases [1] is “very limited off-target kinase inhibition”.
Take YARAAARQARAKALARQLGVAA [MMI-0100]: the IC50 against CaMK1δ (h) amounted to 45.8 µM; at CaMKI (h), 11.7 µM; on EphA2 (h) it was 181 µM; on FGFR2 (h), 172 µM; against Fes(h) it was 174 µM; against Fgr (h) it was 141 µM. The IC50 at MSK1 (h) stood at 102 µM; against Pim-1 (h), 71.7 µM; against Yes (h) it was 114 µM; against MAPKAP-K2 (h) it was 12.1 µM; at MAPKAP-K3 (h), 15.8 µM; against TrkB (h), 4.6 µM. The IC50 was found to be 34.1 µM at DMPK (h), 78.3 µM on DRAK1 (h), 128 µM against EGFR (L861Q) (h) and 47.6 µM at LOK (h). Moreover, the inhibition at 100 µM is over 65% on CaMKI (h) (read-out: inhibition of kinase activity of CaMKI); over 65% at MAPKAP-K2 (h) (at 100 μM, in vitro, read-out: inhibition of kinase activity of MK2); over 65% on MAPKAP-K3 (h) (at 100 μM, in vitro, read-out: inhibition of kinase activity of MK3); over 65% on TrkB (h) (at 100 μM, in vitro). Also, the activity at 100 µM was determined as 85% at 266 human kinases [2], 81% at Melanocortin 4 (setting [5]), 85% on Neurokinin 2 (setting [5]) and 86% at Serotonin 2A (setting [5]). The “inhibition of off-target protein” value on Melanocortin 4 (concentration not given), on Neurokinin 2 (concentration not given) and on Serotonin 2A (concentration not given) was “less than 30%” each time.
Take “autocamtide-2 related inhibitory peptide [AIP]”: the CaMKII activity entry in experiment [3] (AIP 1 μM) is “inhibited completely”. Also, the IC50 in experiment [3] was 0.1 µM. The PKA activity result in the experiment with PKA is “not affected”. In the experiment on PKC, the PKC activity result is “not affected”. On CaMKIV, the CaMKIV activity entry was “not affected”.
Consider FAKLAARLYRKALARQLGVAA [MMI-0300], for which, in the experiment on 266 human kinases [1], the off-target kinase inhibition result is recorded as “very limited off-target kinase inhibition”. Besides, in experiment [4], the “gross scar appearance vs PBS-treated control mouse” value was “less inflammation and less scar formation”.
